Measured values as given in patent US7569729B2, “Stable atomoxetine hydrochloride, a process for the preparation thereof, and an analytical control of its stability” (Teva Pharmaceutical Fine Chemicals S.R.L., priority 2005, dated 2009).
Values joined by “and” are separate entries in the source; they are usually repeats but may differ in a detail not shown here. Equal values may be shown once. Where a name gives a salt, the structure may show the parent alone.

How the values were obtained:
[1] = Stressed thermal stability test (70° C. for 58 hours), impurities by HPLC; type: physicochemical
Text: However, the presence of free HCl in Atomoxetine Hydrochloride, which is easily detected by a pH test of a solution of Atomoxetine Hydrochloride in water, results in significant degradation of the Atomoxetine Hydrochloride, as described below.

[2] = Determination of pH of Atomoxetine Hydrochloride samples in aqueous solution; type: physicochemical; conditions: for pH of 2% (w/V) aqueous solution / aqueous pH test results: Hydrochloride; for pH (2% in H2O): wet samples after filtration from crystallization medium; for aqueous pH test results: samples of the 40° C. stability test
Experimental: The present invention provides a method for analyzing Atomoxetine Hydrochloride stability, comprising determining the pH of a sample of Atomoxetine Hydrochloride in aqueous solution. The process comprises dissolving Atomoxetine Hydrochloride in water at a temperature of about 20° C. to about 30° C. to obtain a solution and measuring the pH. Preferably, the dissolution of Atomoxetine Hydrochloride is accelerated by using a sonication. Preferably, the pH is measured with a glass electrode.
A 2 g sample of Atomoxetine Hydrochloride is dissolved in 100 ml of deionized water at temperature between about 20° C. and about 30° C. with sonication if required to obtain a complete solution. The pH is measured with a glass electrode at temperature of between about 20° C. and about 30° C.

[3] = as above; type: physicochemical; conditions: Example 2, after first water slurry and wash, 200 mg in 10 ml water
[4] = Drying wet Atomoxetine Hydrochloride in a vacuum oven at 70° C., impurities by HPLC; type: physicochemical; conditions: HPLC results, weight percent
Text: These experimental results are in agreement with the previously described stability data.

[5] = Stability test (40° C., five days), impurities by HPLC; type: physicochemical
Experimental: At lower temperatures, e.g., 40° C., the stability of Atomoxetine Hydrochloride samples, having a water solution pH test of less than 4 are compromised, while Atomoxetine Hydrochloride samples, having a water solution pH test of greater than 4, are stable.

[6] = Stability test (40° C., 75% RH), impurities by HPLC; type: physicochemical
[7] = Contact of dry Atomoxetine Hydrochloride with HCl gas flow at room temperature, impurities by HPLC
[8] = End of test time, Hydrochloride
[9] = After drying in vacuum oven at 70° C.
[10] = After contact with HCl gas flow, room temperature
[11] = Before contact with HCl gas flow

Row | SMILES | Impurity (a) (HPLC A %) [1, 8] | Impurity (b) (HPLC A %) [1, 8] | Impurity (c) (HPLC A %) [1, 8] | Impurity (a) (HPLC A %) ([1]; Time zero) | Impurity (b) (HPLC A %) ([1]; Time zero) | Impurity (c) (HPLC A %) ([1]; Time zero) | pH of 2% (w/V) aqueous solution [2] | aqueous pH test results [2] | Impurity (a) (HPLC A %) [5, 8] | Impurity (b) (HPLC A %) [5, 8] | Impurity (c) (HPLC A %) [5, 8] | Impurity (b) (HPLC A %) ([5]; Time zero) | Impurity (a) (HPLC A %) ([5]; Time zero, Hydrochloride) | Impurity (c) (HPLC A %) ([5]; Time zero, Hydrochloride) | also measured
1 | CNCCC(Oc1ccccc1C)c1ccccc1 (single isomer, unassigned) [Sample 1, Atomoxetine Hydrochloride] | 10.5% HPLC A % | 14.2% HPLC A % | 26.2% HPLC A % | not detected | not detected | not detected | 2.4 | – | – | – | – | – | – | – | –
2 | CNCCC(Oc1ccccc1C)c1ccccc1 (single isomer, unassigned) [Sample 2, Atomoxetine Hydrochloride] | not detected | not detected | not detected | not detected | not detected | not detected | 5.8 | – | – | – | – | – | – | – | –
3 | CNCCC(Oc1ccccc1C)c1ccccc1 (single isomer, unassigned) [Sample 3, Atomoxetine Hydrochloride] | not detected | not detected | not detected | not detected | not detected | not detected | 6.0 | – | – | – | – | – | – | – | –
4 | CNCCC(Oc1ccccc1C)c1ccccc1 (single isomer, unassigned) [Sample 4, Atomoxetine Hydrochloride] | not detected | not detected | not detected | not detected | not detected | not detected | 5.9 | – | – | – | – | – | – | – | –
5 | CNCC[C@@H](Oc1ccccc1C)c1ccccc1 [Atomoxetine Hydrochloride, (R)(−)-n-methyl-3-(2-methylphenoxy)-3-phenylpropylamine] | – | – | – | – | – | – | – | – | – | – | – | – | – | – | pH [3]: 4.4; pH ([2]; Example 1, wet solids of two separate preparations, 2 g in 100 ml water): 2.39 and 2.40; pH ([2]; Example 2, after second water slurry and wash, wet, 2 g in 100 ml water): 5.9; pH ([2]; Example 3, after acetone washing and drying, about 2 percent w/V in water): 4.6
6 | CNCCC(Oc1ccccc1C)c1ccccc1 (stereo not shown) [Sample 5, Atomoxetine Hydrochloride] | – | – | – | – | – | – | – | – | – | – | – | – | – | – | pH (2% in H2O) [2]: 2.4; Impurity (a) [4, 9]: 0.31%; Impurity (b) [4, 9]: 0.04%; Impurity (c) [4, 9]: 0.12%; Impurity (a) ([4]; Before drying): not detected; Impurity (b) ([4]; Before drying): not detected; Impurity (c) ([4]; Before drying): not detected
7 | CNCCC(Oc1ccccc1C)c1ccccc1 (stereo not shown) [Sample 6, Atomoxetine Hydrochloride] | – | – | – | – | – | – | – | – | – | – | – | – | – | – | pH (2% in H2O) [2]: 2.4
8 | CNCCC(Oc1ccccc1C)c1ccccc1 (stereo not shown) [Sample 7, Atomoxetine Hydrochloride] | – | – | – | – | – | – | – | 2.4 | 0.633% HPLC A % | 0.0482% HPLC A % | 0.689% HPLC A % | not detected | 0.014% HPLC A % | 0.018% HPLC A % | –
9 | CNCCC(Oc1ccccc1C)c1ccccc1 (stereo not shown) [Sample 8, Atomoxetine Hydrochloride] | – | – | – | – | – | – | – | 4.4 | not detected | not detected | not detected | not detected | not detected | not detected | –
10 | CNCCC(Oc1ccccc1C)c1ccccc1 (stereo not shown) [Sample 9, Atomoxetine Hydrochloride] | – | – | – | – | – | – | – | 4.8 | not detected | not detected | not detected | not detected | not detected | not detected | –
11 | CNCCC(Oc1ccccc1C)c1ccccc1 (stereo not shown) [Sample 10, Atomoxetine Hydrochloride] | – | – | – | – | – | – | – | 6.1 | not detected | not detected | not detected | not detected | not detected | not detected | –
12 | CNCCC(Oc1ccccc1C)c1ccccc1 (stereo not shown) [Sample 11, Atomoxetine Hydrochloride] | – | – | – | – | – | – | – | – | – | – | – | – | – | – | Impurity (a) (HPLC A %) ([6]; 1 month): 0.02 HPLC A %; Impurity (b) (HPLC A %) ([6]; 1 month): 0.006 HPLC A %; Impurity (c) (HPLC A %) ([6]; 1 month): not detected; Impurity (a) (HPLC A %) ([6]; 2 months): 0.02 HPLC A %; Impurity (b) (HPLC A %) ([6]; 2 months): 0.007 HPLC A %; Impurity (c) (HPLC A %) ([6]; 2 months): not detected; Impurity (a) (HPLC A %) ([6]; 3 months): 0.02 HPLC A %; Impurity (b) (HPLC A %) ([6]; 3 months): 0.003 HPLC A %; Impurity (c) (HPLC A %) ([6]; 3 months): not detected; Impurity (a) (HPLC A %) ([6]; 6 month): 0.01 HPLC A %; Impurity (b) (HPLC A %) ([6]; 6 month): not detected; Impurity (c) (HPLC A %) ([6]; 6 month): not detected; Impurity (a) (HPLC A %) ([6]; Time zero): 0.01 HPLC A %; Impurity (b) (HPLC A %) ([6]; Time zero): not detected; Impurity (c) (HPLC A %) ([6]; Time zero): not detected
13 | CNCCC(Oc1ccccc1C)c1ccccc1 (stereo not shown) [Sample 12, Atomoxetine Hydrochloride] | – | – | – | – | – | – | – | – | – | – | – | – | – | – | Impurity (a) [7, 10]: 0.10% HPLC A %; Impurity (b) [7, 10]: 0.032% HPLC A %; Impurity (c) [7, 10]: 1.54% HPLC A %; Impurity (a) [7, 11]: not detected; Impurity (b) [7, 11]: not detected; Impurity (c) [7, 11]: not detected; aqueous pH test result [2, 11]: 6.1; aqueous pH test result ([2]; after contact with HCl gas flow): 2.8
